These results are taken from patent US8143304B2, “(3-amino-1,2,3,4-tetrahydro-9 H-carbazol-9-yl)-acetic acid derivatives” (Actelion Pharmaceutical Ltd., priority 2006, dated 2012).

pIC50: −log10 of the molar value.

The assay addresses T1, hCRTH2 receptor (Homo sapiens, UniProt Q9Y5Y4).
T1 construct: expressed in transfected cells; host or cells: clonal HEK 293 cell line (membrane preparation)
T1 sequence (Q9Y5Y4 1-395): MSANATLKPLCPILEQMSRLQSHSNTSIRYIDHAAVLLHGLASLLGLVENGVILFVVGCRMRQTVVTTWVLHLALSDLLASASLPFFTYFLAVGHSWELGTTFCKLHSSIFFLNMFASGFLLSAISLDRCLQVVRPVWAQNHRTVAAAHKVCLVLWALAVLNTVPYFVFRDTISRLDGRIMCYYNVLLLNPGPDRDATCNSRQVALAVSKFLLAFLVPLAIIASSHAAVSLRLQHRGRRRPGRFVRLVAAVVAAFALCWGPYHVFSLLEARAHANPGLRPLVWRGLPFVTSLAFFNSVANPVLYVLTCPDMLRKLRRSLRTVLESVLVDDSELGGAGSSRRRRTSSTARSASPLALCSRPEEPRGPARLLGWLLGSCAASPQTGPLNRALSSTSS
Briefly: hCRTH2 receptor membranes radioligand binding assay ({3H}-PGD2). Conditions: {3H}-PGD2 2.5 nM, membranes of HEK 293 cells expressing recombinant hCRTH2 receptor; read-out: hCRTH2 Bdg IC50. On the procedure:
The biological effect of such compounds may be tested in a variety of in vitro, ex vivo and in vivo assays.
Biological Assays: Preparation of hCRTH2 Receptor Membranes and Radioligand Binding Assay:
Cells are detached from culture plates in 5 ml buffer A per plate (5 mM Tris, pH 7.4, 1 mM MgCl2, 0.1 mM PMSF, 0.1 mM phenanthroline) using a police rubber and transferred into centrifugation tubes and frozen at −80° C. After thawing, the cells are centrifuged at 500 g for 5 min and then resuspended in buffer A. Cells are then fragmented by homogenization with a Polytron cell homogenizer for 30 s. The membrane fragments are collected by centrifugation at 3000 g for 40 min and resuspended in buffer B (50 mM Tris, pH 7.4, 25 mM MgCl2, 250 mM saccharose) and aliquots are stored at […].
Binding assay is performed in a total volume of 250 μl. […] For unspecific binding, PGD2 is added to the reaction mixture at 1 μM final concentration. This binding assay mix is incubated at rt for 90 min and then filtered through a GF/C filter plate. The filter is washed three times with ice cold binding buffer C. Then, Microscint-40 (Packard, 40 μl/well) is added and the receptor bound radioactivity is quantified by scintillation counting in a “TopCount” benchtop microplate scintillation counter (Packard).
The pIC50 is the IC50 on a negative log10 scale, so that one unit is a factor of ten. With `O=C(O)Cn1c2c(c3cc(F)ccc31)C[C@@H](NC(=O)C1Cc3ccccc3N1)CC2` (stereo partly drawn) [(3S)-{3-[(2,3-Dihydro-1H-indole-2-carbonyl)-amino]-6-fluoro-1,2,3,4-tetrahydro-9H-carbazol-9-yl}-acetic acid], the pIC50 was 7.96.

In the case of `O=C(O)Cn1c2c(c3cc(F)ccc31)C[C@@H](NC(=O)CCc1ccc(Cl)cc1Cl)CC2` [(3S)-{3-[3-(2,4-Dichloro-phenyl)-propionylamino]-6-fluoro-1,2,3,4-tetrahydro-9H-carbazol-9-yl}-acetic acid], the pIC50 is 7.80. Consider `CC(C)(C)OC(=O)Nc1cccc(CCC(=O)N[C@H]2CCc3c(c4cc(F)ccc4n3CC(=O)O)C2)c1` [(3S)-{3-[3-(3-tert-Butoxycarbonylamino-phenyl)-propionylamino]-6-fluoro-1,2,3,4-tetrahydro-9H-carbazol-9-yl}-acetic acid], for which the pIC50 was 7.03.

For `O=C(O)Cn1c2c(c3cc(F)ccc31)C[C@@H](NC(=O)COc1ccc(Cl)cc1)CC2` [(3S)-{3-[2-(4-Chloro-phenoxy)-acetylamino]-6-fluoro-1,2,3,4-tetrahydro-9H-carbazol-9-yl}-acetic acid], the pIC50 was 8.05. As for `O=C(O)Cn1c2c(c3cc(F)ccc31)C[C@H](NC(=O)CCc1cccc(Cl)c1)CC2` [(3R)-{3-[3-(3-Chloro-phenyl)-propionylamino]-6-fluoro-1,2,3,4-tetrahydro-9H-carbazol-9-yl}-acetic acid], the figure is 7.41. Then `O=C(O)Cn1c2c(c3cc(F)ccc31)C[C@@H](NC(=O)CC(c1ccccc1)c1ccccc1)CC2` [(3S)-[3-(3,3-Diphenyl-propionylamino)-6-fluoro-1,2,3,4-tetrahydro-9H-carbazol-9-yl]-acetic acid], with 8.70.

As for `COc1cccc(NC(=O)CC(Cc2ccccc2)C(=O)N[C@H]2CCc3c(c4cc(F)ccc4n3CC(=O)O)C2)c1` (mixture of isomers) [(3S)-{3-[(RS)-2-Benzyl-3-(3-methoxy-phenylcarbamoyl)-propionylamino]-6-fluoro-1,2,3,4-tetrahydro-9H-carbazol-9-yl}-acetic acid], the negative logarithm of the IC50 (pIC50) was 8.22. Then `O=C(O)Cn1c2c(c3cc(F)ccc31)C[C@@H](NC(=O)CCc1cccc(OC(F)(F)F)c1)CC2` [(3S)-{6-Fluoro-3-[3-(3-trifluoromethoxy-phenyl)-propionylamino]-1,2,3,4-tetrahydro-9H-carbazol-9-yl}-acetic acid], with 7.33; and `O=C(O)Cn1c2c(c3ccccc31)C[C@H](NC(=O)NS(=O)(=O)c1ccccc1)CC2` [(3R)-[3-(3-Phenylsulfonyl-ureido)-1,2,3,4-tetrahydro-9H-carbazol-9-yl]-acetic acid], with 6.83; and `O=C(O)Cn1c2c(c3cc(F)ccc31)C[C@@H](NC(=O)c1cc3ccccc3[nH]1)CC2` [(3S)-{6-Fluoro-3-[(1H-indole-2-carbonyl)-amino]-1,2,3,4-tetrahydro-9H-carbazol-9-yl}-acetic acid], with 6.08. Then `CCCCNC(=O)N[C@H]1CCc2c(c3ccccc3n2CC(=O)O)C1` [(3S)-[3-(3-Butyl-ureido)-1,2,3,4-tetrahydro-9H-carbazol-9-yl]-acetic acid], with 6.05; and `O=C(O)Cn1c2c(c3cc(F)cc(Cl)c31)CC(NC(=O)CCc1ccccc1)CC2` (racemic), with 7.24. With `COCCN(C(=O)CCc1ccccc1OC)[C@H]1CCc2c(c3cc(F)ccc3n2CC(=O)O)C1` [(3S)-(6-Fluoro-3-{(2-methoxy-ethyl)-[3-(2-methoxy-phenyl)-propionyl]-amino}-1,2,3,4-tetrahydro-9H-carbazol-9-yl)-acetic acid], the pIC50 was 8.22. Take `O=C(O)Cn1c2c(c3ccccc31)C[C@H](NC(=O)Nc1cccc3ccccc13)CC2` [(3R)-[3-(3-Naphthalen-1-yl-ureido)-1,2,3,4-tetrahydro-9H-carbazol-9-yl]-acetic acid]: the pIC50 was 6.82.

For the compound `COc1cccc2c1CC(C(=O)N[C@H]1CCc3c(c4cc(F)ccc4n3CC(=O)O)C1)CC2` (mixture of isomers) [(3S)-(6-Fluoro-3-{[(2RS)-8-methoxy-1,2,3,4-tetrahydro-naphthalene-2-carbonyl]-amino}-1,2,3,4-tetrahydro-9H-carbazol-9-yl)-acetic acid], the pIC50 was 7.74. Then `O=C(O)Cn1c2c(c3cc(C(F)(F)F)ccc31)CC(NC(=O)OCc1ccccc1)CC2` (racemic), with 7.59; and `O=C(O)Cn1c2c(c3ccccc31)C[C@@H](NC(=O)OCCOCc1ccccc1)CC2` [(3S)-[3-(2-Benzyloxy-ethoxycarbonylamino)-1,2,3,4-tetrahydro-9H-carbazol-9-yl]-acetic acid], with 6.93; and `O=C(O)Cn1c2c(c3cc(F)ccc31)C[C@@H](N(CC1CCCCC1)C(=O)NCc1ccccc1)CC2` [(3S)-[3-(3-Benzyl-1-cyclohexylmethyl-ureido)-6-fluoro-1,2,3,4-tetrahydro-9H-carbazol-9-yl]-acetic acid], with 8.22.

For the compound `O=C(O)Cn1c2c(c3ccccc31)C[C@H](NC(=O)Cc1cccs1)CC2` [(3R)-[3-(2-Thiophen-2-yl-acetylamino)-1,2,3,4-tetrahydro-9H-carbazol-9-yl]-acetic acid], the pIC50 is 6.53.

For `CCN(C(=O)CCc1ccccc1)[C@H]1CCc2c(c3cc(F)ccc3n2CC(=O)O)C1` [(3S)-{6-Fluoro-3-[ethyl-(3-phenyl-propionyl)-amino]-1,2,3,4-tetrahydro-9H-carbazol-9-yl}-acetic acid], the negative logarithm of the IC50 (pIC50) was 7.80.

Regarding `CC(=O)N(CCc1ccccc1F)[C@H]1CCc2c(c3cc(F)ccc3n2CC(=O)O)C1` [(3S)-(3-{Acetyl-[2-(2-fluoro-phenyl)-ethyl]-amino}-6-fluoro-1,2,3,4-tetrahydro-9H-carbazol-9-yl)-acetic acid], the pIC50 is 8.40.

Consider `O=C(O)Cn1c2c(c3cc(F)ccc31)C[C@@H](NC(=O)CCc1ccc3c(c1)OCO3)CC2` [(3S)-[3-(3-Benzo[1,3]dioxol-5-yl-propionylamino)-6-fluoro-1,2,3,4-tetrahydro-9H-carbazol-9-yl]-acetic acid], for which the pIC50 was 7.82. For the compound `O=C(O)Cn1c2c(c3cc(F)ccc31)C[C@@H](NC(=O)CCc1cc(C(F)(F)F)ccc1C(F)(F)F)CC2` [(3S)-{3-[3-(2,5-Bis-trifluoromethyl-phenyl)-propionylamino]-6-fluoro-1,2,3,4-tetrahydro-9H-carbazol-9-yl}-acetic acid], the pIC50 was 7.82. As for `CS(=O)(=O)c1ccc(CCC(=O)N[C@H]2CCc3c(c4cc(F)ccc4n3CC(=O)O)C2)cc1` [(3S)-{6-Fluoro-3-[3-(4-methanesulfonyl-phenyl)-propionylamino]-1,2,3,4-tetrahydro-9H-carbazol-9-yl}-acetic acid], the negative-log IC50 (pIC50) is 7.14. On to `C[C@@H](Cc1ccccc1)C(=O)N(CCOc1ccccc1)[C@H]1CCc2c(c3cc(F)ccc3n2CC(=O)O)C1` [(3S)-{6-Fluoro-3-[((S)-2-methyl-3-phenyl-propionyl)-(2-phenoxy-ethyl)-amino]-1,2,3,4-tetrahydro-9H-carbazol-9-yl}-acetic acid], for which the pIC50 is 7.68. Then `CSc1ccc(CCC(=O)N[C@H]2CCc3c(c4cc(F)ccc4n3CC(=O)O)C2)cc1` [(3S)-{6-Fluoro-3-[3-(4-methylsulfanyl-phenyl)-propionylamino]-1,2,3,4-tetrahydro-9H-carbazol-9-yl}-acetic acid], with 7.85; and `O=C(O)Cn1c2c(c3ccccc31)C[C@H](NC(=O)CCC1CCCC1)CC2` [(3R)-[3-(3-Cyclopentyl-propionylamino)-1,2,3,4-tetrahydro-9H-carbazol-9-yl]-acetic acid], with 6.40; and `O=C(O)Cn1c2c(c3ccccc31)C[C@H](NC(=O)c1ccccc1)CC2` [(3R)-(3-Benzoylamino-1,2,3,4-tetrahydro-9H-carbazol-9-yl)-acetic acid], with 6.31. As for `Cc1ccc(CCC(=O)N[C@@H]2CCc3c(c4cc(F)ccc4n3CC(=O)O)C2)cc1` [(3R)-[6-Fluoro-3-(3-p-tolyl-propionylamino)-1,2,3,4-tetrahydro-9H-carbazol-9-yl]-acetic acid], the figure is 7.21.

On to `CC(C)COC(=O)N[C@H]1CCc2c(c3ccccc3n2CC(=O)O)C1` [(3S)-(3-Isobutoxycarbonylamino-1,2,3,4-tetrahydro-9H-carbazol-9-yl)-acetic acid], for which the pIC50 is 7.08. Then `O=C(O)Cn1c2c(c3cc(F)ccc31)C[C@@H](NC(=O)CCc1ccccc1O)CC2` [(3S)-{6-Fluoro-3-[3-(2-hydroxy-phenyl)-propionylamino]-1,2,3,4-tetrahydro-9H-carbazol-9-yl}-acetic acid], with 7.48.
